Results reported in the supplement of paper PMC5770543.
± gives the standard deviation.

Legend:
[1] = test system: Plasmodium falciparum 3D7; test: EC50 growth inhibition (60 h, SYBR Green); conditions: stage: ring-stage start
[2] = test system: Toxoplasma gondii RH tachyzoites; test: % growth inhibition vs DMSO (48 h luciferase); higher = more inhibition; conditions: 10 µM
[3] = test system: Plasmodium falciparum 3D7; test: R50 (50% reduction of ring formation, egress/invasion); higher = less potent
Protocol: (§1)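 P. falciparum asexual blood stages. EC50: sorbitol-synchronized 3D7 rings were treated with 2-fold dilutions from 10 µM for 60 h, with parasitemia read by SYBR Green I fluorescence; EC50 listed as 10 means not determined and is left out. Stage transition screen: ~40-42 hpi schizonts were treated at 1, 3 and 10 µM; new rings were counted by Hoechst flow cytometry and % inhibition is relative to DMSO controls (mean of 3 experiments). R50: concentration giving 50% reduction of new ring formation versus DMSO in 3D7, K1 and KH004-003, from flow cytometry after 12-20 h treatment of schizonts.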

[4] = test system: Plasmodium falciparum K1 (chloroquine resistant); test: as above
Protocol: as §1

[5] = test system: Plasmodium falciparum KH004-003 (artemisinin resistant); test: as above
Protocol: as §1

[6] = test system: Plasmodium falciparum 3D7; test: % inhibition of schizont-to-ring transition vs DMSO; higher = more inhibition
Summary of the method: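 Schizont-to-ring transition inhibition is the formation of new rings relative to vehicle controls. Tightly synchronised P. falciparum schizonts at about 40–42 hours post-invasion (1% parasitemia, 2.5% hematocrit, AlbuMAX-supplemented RPMI) were treated with compound at 1, 3 or 10 µM, alongside vehicle and positive controls. After glutaraldehyde fixation, Triton permeabilisation and Hoechst 33342 staining, at least 100,000 events were counted by flow cytometry, and values are the mean of three experiments.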

[7] = test system: Toxoplasma gondii RH tachyzoites; test: median egress time after A23187 ionophore; higher = stronger egress inhibition; conditions: 10 µM; pretreatment time: 24 h
Protocol: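 T. gondii RH tachyzoites expressing firefly luciferase were grown in HFF monolayers for 48 h with compound. % growth inhibition at 10 µM and EC50 (2-fold dilutions from 10 µM) were read by luminescence relative to 1% DMSO; EC50 listed as 10 (not determined, <80% inhibition) is left out. Plaque assays: 50 tachyzoites per well with 10 µM compound for 8-10 days, giving plaque count and area by crystal violet/ImageJ. Egress: median time to egress after 1 µM A23187 ionophore following 24 h of 10 µM compound (DMSO ~1.8 min; >10 = no egress within 10 min).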

[8] = test system: Toxoplasma gondii RH tachyzoites; test: plaque count per well; higher = less inhibition; extreme values may be limits of the assay; conditions: 10 µM; 8-10 days
Summary of the method: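 Compound at 10 µM was preseeded onto confluent HFF monolayers in six-well plates, which then received fifty T. gondii RH tachyzoites per well and were left undisturbed for 8 to 10 days. Fixation with methanol and staining with crystal violet followed, and ImageJ was used to image and count plaques in each well. These counts serve as a readout of delayed-death inhibition of parasite growth.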

[9] = target: Toxoplasma gondii RH tachyzoites; test: EC50 growth inhibition (48 h luciferase)
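Wherever % growth inhibition vs DMSO (48 h luciferase) is given: tested in triplicate wells of 96-well plates on confluent HFF monolayers, with 1% DMSO wells as negative control in four replicates.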

| Structure (SMILES) | EC50 growth inhibition [1] [nM] | % growth inhibition [2] [%] | R50 [3] [µM] | R50 [4] [µM] | R50 [5] [µM] | % inhibition of schizont-to-ring transition ([6]; 1 µM) [%] | % inhibition of schizont-to-ring transition ([6]; 3 µM) [%] | % inhibition of schizont-to-ring transition ([6]; 10 µM) [%] | median egress time [7] [min] | plaque count per well [8] | EC50 growth inhibition [9] [nM] |
| --- | --- | --- | --- | --- | --- | --- | --- | --- | --- | --- | --- |
| COc1ccc2c(c1)C1(Nc3ccccc3-c3nc4ccccc4n31)C(=O)N2 (stereo not given) | 138 | 47.3 ± 3.5 | 0.892 | 0.768 | 0.922 | 62 | 64.1 | 68.6 | 2.33 | – | – |
| Oc1ccc(Br)cc1CN1CCN(Cc2cccc(F)c2)CC1 | 787 | 6.13 ± 7.3 | – | – | – | 19 | 40.9 | 60.6 | 2.27 | 21 | – |
| Cc1cc(Nc2ccc(C)c(Cl)c2)n2nc(C(F)(F)F)nc2n1 | 12.5 | 23.8 ± 9.5 | 0.274 | 0.212 | 0.1 | 51.6 | 56.6 | 65.1 | 2.46 | – | – |
| Cc1sc2ncnc(Sc3nc4ccccc4[nH]3)c2c1C | 860 | 95.05 ± 0.6 | 2.43 | 1.69 | 0.464 | 47.8 | 59.6 | 77.8 | – | – | 2950 |
| Cn1c(C(=O)c2cccc3ccccc23)nc2ccccc21 | 147 | 9.52 ± 8.7 | – | – | – | 53 | 65.5 | 70.2 | 2.4 | 24 | – |
| Cc1cc(C)c2c(c1)OCN(Cc1ccccc1Cl)C2 | 3620 | 4.95 ± 8.6 | – | – | – | < 0 | 17.9 | 59.9 | 2 | 27 | – |
| O=C(NC1CCN(Cc2ccccc2)CC1)c1cc(-c2cccnc2)nc2ccc(Cl)cc12 | 2560 | 19.7 ± 17 | – | – | – | 13.5 | 17.4 | 37.7 | 2.67 | 34 | – |
| CN1CCN(c2ccc(Nc3c4ccccc4nc4ccccc34)cc2)CC1 | 59.9 | 100 ± 0.36 | 1.39 | 1.94 | 0.883 | 68.6 | 75.5 | 77.1 | – | – | 2320 |
| O=C(NC1CCCCC1)C(c1cccs1)N(CCc1ccccc1)C(=O)c1ccco1 (stereo not given) | 1720 | < 0 | – | – | – | 38.6 | 42 | 46.4 | 2.06 | 39 | – |
| CNCCCNc1ccnc2cc(Cl)ccc12 | 25.8 | 21.4 ± 19 | 0.345 | 4.11 | 3.81 | 61.4 | 66.5 | 71.6 | 2.4 | – | – |
| CCCC(c1nnnn1C1CCCCC1)N1CCN(C(=O)c2ccco2)CC1 (stereo not given) | 1470 | 9.52 ± 8.7 | – | – | – | 9.2 | 14.6 | 32.1 | 2.4 | 24 | – |
| COc1cc(-c2nc(-c3ccccc3)c(-c3ccccc3)[nH]2)cc(OC)c1O | 8620 | 6.6 ± 11 | – | – | – | 13.7 | 15.2 | 37.4 | 2.93 | 22 | – |
| CCCCCCc1cc2cc(-c3csc(C=Cc4ccccc4)n3)c(=O)oc2cc1O | 8400 | 8.97 ± 4.1 | – | – | – | 9.04 | 16 | 39.7 | 1.94 | 16 | – |
| Cc1cc(NC(=O)c2ccc(-c3ccccc3)cc2)no1 | 1810 | < 0 | – | – | – | 45.3 | 53.4 | 61.7 | 2.27 | 26 | – |
| CC(C)(C)c1ccc(O)c(CNC2CCCCC2)c1 | 93.3 | 7.99 ± 2.4 | 0.305 | 0.119 | 0.215 | 70.4 | 76.8 | 76.9 | 2.8 | 0 | – |
| COc1cccc(NC(=O)[C@H](C(C)C)n2c(=O)[nH]c3ccccc3c2=O)c1 | 51.4 | 76.9 ± 9.3 | 0.28 | 0.212 | 0.183 | 79.8 | 80.5 | 79.4 | 2.67 | – | – |
| COc1ccc(NC(=O)C2c3ccccc3C(=O)N(CC(C)C)C2c2cccs2)cc1Cl (stereo not given) | 1040 | < 0 | 0.156 | 0.183 | 0.204 | 75.7 | 74.9 | 78.9 | – | 28 | – |
| Oc1ccc(-c2nc(-c3ccc4oc5ccc(-c6[nH]c(-c7ccc(O)cc7)nc6-c6ccccc6)cc5c4c3)c(-c3ccccc3)[nH]2)cc1 | 1890 | < 0 | – | – | – | 8.13 | 15.7 | 48.8 | 1.47 | 11 | – |
| CCOc1cc2c(cc1OCC)C(c1cc(OC)c(O)cc1Cl)NCC2 (stereo not given) | 711 | 37.4 ± 13 | 2.71 | 0.342 | 1.32 | 11.2 | 60 | 76.1 | 2.27 | – | – |
| COc1cccc(O)c1CN1CCC2(CCCN(Cc3ccc(F)cc3)C2)C1 (stereo not given) | 409 | 79.6 ± 3.5 | 1.91 | 0.805 | 1.23 | 42.2 | 68.4 | 72.4 | – | – | – |
